Data on 12 molecules can be found in patent US20260053932A1, “COMPOUNDS AND METHODS FOR THE TARGETED DEGRADATION OF ANDROGEN RECEPTOR AND ASSOCIATED METHODS OF USE” (Arvinas Operations, Inc., priority 2020, published 2026).

The structures appear in SMILES notation. Where only a bound is given, the exact number is not on record here.

A word on the DC50: it is the concentration at which degradation of the target reaches its halfway point.

In this assay the test system is androgen receptor (AR) in LNCaP and/or VCaP cells. Nature of the assay: Androgen Receptor ELISA assay (AR degradation). The format is cell-based. The conditions noted are these: degradation of AR ELISA in LNCaP and/or VCaP cells; Table 2C; read-out: DC50 Code*. The essentials: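 VCaP cells grown ≥3 days, then treated 5 h with compound in media containing 1 nM R1881 (10× stock). Cells lysed and AR quantified by sandwich ELISA (mouse AR detection Ab, HRP anti-mouse, TMB). DC50 and Dmax derived from AR degradation.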
(In general: ELISA stands for enzyme-linked immunosorbent assay.)
`COc1cc(O[C@H]2C(C)(C)[C@H](NC(=O)c3cnc(N4CCC(CN(C(C)C)[C@H]5C[C@H](Oc6cc(OC)c7c(c6)C(=O)N(C6CCC(=O)NC6=O)C7=O)C5)CC4)cn3)C2(C)C)ccc1C#N` (stereo partly drawn) [compound 98, N-((1r,3r)-3-(4-cyano-3-methoxyphenoxy)-2,2,4,4-tetramethylcyclobutyl)-5-(4-((((1r,3r)-3-((2-(2,6-dioxopiperidin-3-yl)-7-methoxy-1,3-dioxoisoindolin-5-yl)oxy)cyclobutyl) (isopropyl)amino)methyl)piperidin-1-yl)pyrazine-2-carboxamide]: the DC50 was less than 1 nM.
With `Cc1cc(O[C@H]2C(C)(C)[C@H](NC(=O)c3cnc(N4CCC(CN5CC(Oc6ccc7c(c6)C(=O)N(C6CCC(=O)NC6=O)C7=O)C5)CC4)cn3)C2(C)C)cc(C)c1C#N` (stereo partly drawn) [compound 99, N-((1r,3r)-3-(4-cyano-3,5-dimethylphenoxy)-2,2,4,4-tetramethylcyclobutyl)-5-(4-((3-((2-(2,6-dioxopiperidin-3-yl)-1,3-dioxoisoindolin-5-yl)oxy)azetidin-1-yl)methyl)piperidin-1-yl)pyrazine-2-carboxamide], the DC50 is less than 1 nM.
On to `COCCN(CC1CCN(c2ccc(C(=O)N[C@H]3C(C)(C)[C@H](Oc4ccc(C#N)c(OC)c4)C3(C)C)nn2)CC1)[C@H]1C[C@H](Oc2cc(OC)c3c(c2)C(=O)N(C2CCC(=O)NC2=O)C3=O)C1` (stereo partly drawn) [compound 100, N-((1r,3r)-3-(4-cyano-3-methoxyphenoxy)-2,2,4,4-tetramethylcyclobutyl)-6-(4-((((1r,3r)-3-((2-(2,6-dioxopiperidin-3-yl)-7-methoxy-1,3-dioxoisoindolin-5-yl)oxy)cyclobutyl)(2-methoxyethyl)amino)methyl)piperidin-1-yl)pyridazine-3-carboxamide], for which the DC50 was less than 1 nM.
The result for `COCCN(CC1CCN(c2ccc(C(=O)NC3C(C)(C)C(Oc4ccc(C#N)c(OC)c4)C3(C)C)cc2)CC1)C1CC(Oc2ccc3c(c2)C(=O)N([C@@H]2CCC(=O)NC2=O)C3=O)C1` (stereo partly drawn) [compound 101, N-((1r,3r)-3-(4-cyano-3-methoxyphenoxy)-2,2,4,4-tetramethylcyclobutyl)-4-(4-((((1r,3r)-3-((2-(2,6-dioxopiperidin-3-yl)-1,3-dioxoisoindolin-5-yl)oxy)cyclobutyl)(2-methoxyethyl)amino)methyl)piperidin-1-yl)benzamide] reads less than 1 nM; that for `COc1cc(O[C@H]2C(C)(C)[C@H](NC(=O)c3ccc(N4CCC(CN(C(C)C)[C@H]5C[C@H](Oc6cc(OC)c7c(c6)C(=O)N(C6CCC(=O)NC6=O)C7=O)C5)CC4)nn3)C2(C)C)ccc1C#N` (stereo partly drawn) [compound 102, N-((1r,3r)-3-(4-cyano-3-methoxyphenoxy)-2,2,4,4-tetramethylcyclobutyl)-6-(4-((((1r,3r)-3-((2-(2,6-dioxopiperidin-3-yl)-7-methoxy-1,3-dioxoisoindolin-5-yl)oxy)cyclobutyl) (isopropyl)amino)methyl)piperidin-1-yl)pyridazine-3-carboxamide], less than 1 nM; that for `CC(C)Oc1cc(N2CCN(CC3CCN(c4ncc(C(=O)N[C@H]5C(C)(C)[C@H](Oc6ccc(C#N)c(Cl)c6)C5(C)C)cn4)CC3)CC2)cc2c1C(=O)N(C1CCC(=O)NC1=O)C2=O` (stereo partly drawn) [compound 103, N-((1r,3r)-3-(3-chloro-4-cyanophenoxy)-2,2,4,4-tetramethylcyclobutyl)-2-(4-((4-(2-(2,6-dioxopiperidin-3-yl)-7-isopropoxy-1,3-dioxoisoindolin-5-yl)piperazin-1-yl)methyl)piperidin-1-yl)pyrimidine-5-carboxamide], less than 1 nM.
For `Cc1cc(O[C@H]2C(C)(C)[C@H](NC(=O)c3ccc(N4CCC(CN(C(C)C)[C@H]5C[C@H](Oc6ccc7c(c6)C(=O)N(C6CCC(=O)NC6=O)C7=O)C5)CC4)cc3)C2(C)C)cc(C)c1C#N` (stereo partly drawn) [compound 104, N-((1r,3r)-3-(4-cyano-3,5-dimethylphenoxy)-2,2,4,4-tetramethylcyclobutyl)-4-(4-((((1r,3r)-3-((2-(2,6-dioxopiperidin-3-yl)-1,3-dioxoisoindolin-5-yl)oxy)cyclobutyl)(isopropyl)amino)methyl)piperidin-1-yl)benzamide], the DC50 was less than 1 nM.
For `COCCN(CC1CCN(c2ccc(C(=O)N[C@H]3C(C)(C)[C@H](Oc4ccc(C#N)c(Cl)c4)C3(C)C)cc2)CC1)[C@H]1C[C@H](Oc2cc(OC)c3c(c2)C(=O)N(C2CCC(=O)NC2=O)C3=O)C1` (stereo partly drawn) [compound 105, N-((1r,3r)-3-(3-chloro-4-cyanophenoxy)-2,2,4,4-tetramethylcyclobutyl)-4-(4-((((1r,3r)-3-((2-(2,6-dioxopiperidin-3-yl)-7-methoxy-1,3-dioxoisoindolin-5-yl)oxy)cyclobutyl)(2-methoxyethyl)amino)methyl)piperidin-1-yl)benzamide] the value was less than 1 nM; for `COCCN(CC1CCN(c2ccc(C(=O)N[C@H]3C(C)(C)[C@H](Oc4cc(C)c(C#N)c(C)c4)C3(C)C)cc2)CC1)[C@H]1C[C@H](Oc2cc(OC)c3c(c2)C(=O)N(C2CCC(=O)NC2=O)C3=O)C1` (stereo partly drawn) [compound 106, N-((1r,3r)-3-(4-cyano-3,5-dimethylphenoxy)-2,2,4,4-tetramethylcyclobutyl)-4-(4-((((1r,3r)-3-((2-(2,6-dioxopiperidin-3-yl)-7-methoxy-1,3-dioxoisoindolin-5-yl)oxy)cyclobutyl)(2-methoxyethyl)amino)methyl)piperidin-1-yl)benzamide], less than 1 nM.
In the case of `CC1(C)[C@H](NC(=O)c2ccc(N3CC4CN(CC5CCN(c6ccc7c(c6)C(=O)N(C6CCC(=O)NC6=O)C7=O)CC5)CC4C3)cc2)C(C)(C)[C@H]1Oc1ccc(C#N)c(Cl)c1` (stereo partly drawn) [compound 107, N-((1r,3r)-3-(3-chloro-4-cyanophenoxy)-2,2,4,4-tetramethylcyclobutyl)-4-(5-((1-(2-(2,6-dioxopiperidin-3-yl)-1,3-dioxoisoindolin-5-yl)piperidin-4-yl)methyl)hexahydropyrrolo [3,4-c]pyrrol-2(1H)-yl)benzamide], the DC50 is less than 1 nM.
For `CC(C)N(CC1CCN(c2ncc(C(=O)N[C@H]3C(C)(C)[C@H](Oc4ccc(C#N)c(C#N)c4)C3(C)C)cn2)CC1)[C@H]1C[C@H](Oc2ccc3c(c2)C(=O)N(C2CCC(=O)NC2=O)C3=O)C1` (stereo partly drawn) [compound 108, N-((1r,3r)-3-(3,4-dicyanophenoxy)-2,2,4,4-tetramethylcyclobutyl)-2-(4-((((1r,3r)-3-((2-(2,6-dioxopiperidin-3-yl)-1,3-dioxoisoindolin-5-yl)oxy)cyclobutyl) (isopropyl)amino)methyl)piperidin-1-yl)pyrimidine-5-carboxamide] the value was less than 1 nM; for `Cc1cc(O[C@H]2C(C)(C)[C@H](NC(=O)c3cnc(N4CCC(CN(CC(F)F)[C@H]5C[C@H](Oc6ccc7c(c6)C(=O)N(C6CCC(=O)NC6=O)C7)C5)CC4)nc3)C2(C)C)cc(C)c1C#N` (stereo partly drawn) [compound 109, N-((1r,3r)-3-(4-cyano-3,5-dimethylphenoxy)-2,2,4,4-tetramethylcyclobutyl)-2-(4-(((2,2-difluoroethyl)((1r,3r)-3-((2-(2,6-dioxopiperidin-3-yl)-3-oxoisoindolin-5-yl)oxy)cyclobutyl)amino)methyl)piperidin-1-yl)pyrimidine-5-carboxamide], less than 1 nM.
